Results reported in publication PMC6050298, “Highly active enzymes by automated combinatorial backbone assembly and sequence design” (Nature Communications, 2018).

Columns and labels:
xyl3.2 = test system: T1, xyl3.2; experiment: 4-nitrophenol release, […] nm, Michaelis-Menten fit; type: biochemical, synthetic construct; details: 37 °C, 50 mM Tris pH 6.5, 150 mM NaCl; MBP fusion
T1 construct: computational design (112 mutations to nearest natural protein), N-terminal His6-MBP fusion kept

[1] = target: T2, GH10 from S. lividans (PDB ID 1E0V) (Streptomyces lividans, UniProt P26514); experiment: 4-nitrophenol release, […] nm; type: biochemical; details: 37 °C, 50 mM Tris pH 6.5, 150 mM NaCl; MBP fusion
T2 construct: gene xlnA; synthetic codon-optimised gene, N-terminal His6-MBP fusion kept in assay, E. coli BL21 DE3; probably catalytic domain as in 1E0V
T2 sequence (P26514 42-354): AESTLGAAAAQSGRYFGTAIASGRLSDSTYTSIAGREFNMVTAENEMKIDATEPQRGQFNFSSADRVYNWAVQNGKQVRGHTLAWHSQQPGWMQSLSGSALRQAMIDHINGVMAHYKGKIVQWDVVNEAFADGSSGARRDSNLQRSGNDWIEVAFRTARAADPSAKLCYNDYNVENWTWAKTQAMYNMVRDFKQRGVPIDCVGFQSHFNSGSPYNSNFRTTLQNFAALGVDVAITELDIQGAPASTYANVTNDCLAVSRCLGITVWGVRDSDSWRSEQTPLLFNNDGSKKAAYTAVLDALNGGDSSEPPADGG

pll4.1 = test system: T3, pll4.1; type: biochemical, synthetic construct
T3 construct: computational design (85 mutations to nearest natural protein), N-terminal His6-MBP fusion kept

pll2.4 = test system: T4, pll2.4; type: biochemical, synthetic construct
T4 construct: computational design (60 mutations to nearest natural protein), N-terminal His6-MBP fusion kept

pll2.2 = test system: T5, pll2.2; type: biochemical, synthetic construct
T5 construct: computational design (54 mutations to nearest natural protein), N-terminal His6-MBP fusion kept

Km (xyl3.2) [µM]	Structure (SMILES)	kcat/KM [1]	Km (pll4.1) [µM]	Km (pll2.4) [µM]	Km (pll2.2) [µM]
160 ± 20	O=[N+]([O-])c1ccc(O[C@@H]2OC[C@@H](O[C@@H]3OC[C@@H](O)[C@H](O)[C@H]3O)[C@H](O)[C@H]2O)cc1 [4-nitrophenyl β-xylobioside]	Catalytic efficiency of GH10 designs with OPNPX2 compared to natural GH10 enzymes	–	–	–
–	CCCCSC1CCC(=O)O1 (centres unmarked) [5-thiobutyl butyrolactone]	–	350	82	180
